Measured values published in patent publication US20240270821A1, “GIP/GLP1/GCG TRI-RECEPTOR AGONISTS AND USES THEREOF” (priority 2023, published 2024).
Like-named read-outs stand apart in the source and are kept apart here. Marks after values point to notes of the source that are not given here. Starred links: 1 amine or outer side, 2 acyl side, 3 side chain; linkers in the order of their positions; H or OH if unused. Non-standard residues stand in square brackets, D forms with d. Groups on a side chain read outwards from the residue. *: point of attachment. C20 diacid = O=C(O)CCCCCCCCCCCCCCCCCCC(=O)*; C18 diacid = O=C(O)CCCCCCCCCCCCCCCCC(=O)*; αMePhe(2-F) = C[C@](N)(Cc1ccccc1F)C(=O)O; γGlu = O=C(O)[C@H](CCC(=O)[*:2])N[*:1]; NMeY = CN[C@@H](Cc1ccc(O)cc1)C(=O)O; αMeY = C[C@](N)(Cc1ccc(O)cc1)C(=O)O; αMeF = C[C@](N)(Cc1ccccc1)C(=O)O; 4Pal = N[C@@H](Cc1ccncc1)C(=O)O; αMeL = CC(C)C[C@](C)(N)C(=O)O; αMeS = C[C@](N)(CO)C(=O)O; Orn = NCCC[C@H](N)C(=O)O; AEEA = NCCOCCOCC(=O)O; Aib = CC(C)(N)C(=O)O

Legend:
hGLP-1R [1] = target: T1, hGLP-1R (Homo sapiens, UniProt P43220); assay: Functional cAMP activation in the presence of 0.1% casein (no HSA); assay type: cell-based; details: read-out: Relative cAMP EC50, hGLP-1R;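 further: intracellular cAMP rise after 30 min at 37 °C read by HTRF, normalized between buffer only (0%) and maximal control ligand (100%), four-parameter variable-slope fit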
Target sequence in this assay (P43220 24-463): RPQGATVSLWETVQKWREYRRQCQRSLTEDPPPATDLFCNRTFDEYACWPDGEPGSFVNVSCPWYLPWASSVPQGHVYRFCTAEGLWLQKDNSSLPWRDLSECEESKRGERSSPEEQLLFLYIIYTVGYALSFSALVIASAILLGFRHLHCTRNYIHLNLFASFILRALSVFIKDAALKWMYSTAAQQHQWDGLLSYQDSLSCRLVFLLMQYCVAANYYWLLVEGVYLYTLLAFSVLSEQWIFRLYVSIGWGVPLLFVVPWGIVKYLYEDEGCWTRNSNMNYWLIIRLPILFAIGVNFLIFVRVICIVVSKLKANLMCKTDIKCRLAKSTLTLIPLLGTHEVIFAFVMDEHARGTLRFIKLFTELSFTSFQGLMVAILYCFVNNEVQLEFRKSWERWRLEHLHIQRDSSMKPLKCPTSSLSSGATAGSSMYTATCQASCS

hGcgR = hGcgR (Homo sapiens, UniProt P47871); assay: as above; assay type: cell-based; details: read-out: Relative cAMP EC50, hGcgR;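 further: intracellular cAMP rise after 30 min at 37 °C, read by HTRF against a cAMP standard curve, scaled from buffer only (0%) to maximal control ligand response (100%)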
Sequence of hGcgR (P47871 26-477): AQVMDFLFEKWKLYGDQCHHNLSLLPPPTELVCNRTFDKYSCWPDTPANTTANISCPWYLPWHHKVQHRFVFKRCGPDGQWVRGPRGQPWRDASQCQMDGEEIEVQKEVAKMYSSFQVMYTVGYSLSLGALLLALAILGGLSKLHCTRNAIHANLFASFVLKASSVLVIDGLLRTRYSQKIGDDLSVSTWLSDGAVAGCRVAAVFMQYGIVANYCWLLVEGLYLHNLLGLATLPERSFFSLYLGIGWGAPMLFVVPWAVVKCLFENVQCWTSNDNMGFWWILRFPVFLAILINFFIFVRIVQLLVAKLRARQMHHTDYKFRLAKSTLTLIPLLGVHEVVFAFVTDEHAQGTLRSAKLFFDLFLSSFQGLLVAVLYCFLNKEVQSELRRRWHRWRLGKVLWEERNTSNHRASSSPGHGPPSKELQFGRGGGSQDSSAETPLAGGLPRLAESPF

[2] = Body weight in diet-induced obese C57BL/6 mice; assay type: in vivo; details: percent of starting weight, DIO mice, mean ± SEM n=5
Protocol: To investigate the effect of the polypeptides as described herein on weight loss, exemplary polypeptides are dosed to C57BL/6 diet-induced obese (DIO) mice. Specifically, DIO male C57BL/6 mice (Taconic, Germantown, NY) maintained on a calorie-rich diet are used in the following studies. Mice are individually housed in a temperature-controlled (24° C.) facility with 12-hour light/dark cycle (lights on 22:00) and free access to food (TD95217) and water. After a minimum of 2 weeks acclimation to the facility, the mice are randomized according to their body weight, so each experimental group of animals would have similar starting body weight. The body weights range from 41 to 50 g. All groups contain 5 mice. […] Treatments are administered by subcutaneous (SC) injection (10 mL/kg) to ad libitum fed DIO mice 30 to 90 minutes prior to the onset of the dark cycle either once daily (QD) or once every 3 days (Q3D) for 9-16 days. Body weight and food intake are measured daily throughout the study. Body weight is presented as percent of the starting weight. […] Data are presented as mean±SEM of 5 animals per group in Table 7 below. Statistical analysis is performed using repeated measures ANOVA, followed by Dunnett's method comparison test.

hGIPR [3] = target: T2, hGIPR (Homo sapiens, UniProt P48546); assay: Functional cAMP activity in the presence of 1% HSA; assay type: cell-based; details: read-out: cAMP Rel EC50, hGIPR
T2 sequence (P48546 22-466): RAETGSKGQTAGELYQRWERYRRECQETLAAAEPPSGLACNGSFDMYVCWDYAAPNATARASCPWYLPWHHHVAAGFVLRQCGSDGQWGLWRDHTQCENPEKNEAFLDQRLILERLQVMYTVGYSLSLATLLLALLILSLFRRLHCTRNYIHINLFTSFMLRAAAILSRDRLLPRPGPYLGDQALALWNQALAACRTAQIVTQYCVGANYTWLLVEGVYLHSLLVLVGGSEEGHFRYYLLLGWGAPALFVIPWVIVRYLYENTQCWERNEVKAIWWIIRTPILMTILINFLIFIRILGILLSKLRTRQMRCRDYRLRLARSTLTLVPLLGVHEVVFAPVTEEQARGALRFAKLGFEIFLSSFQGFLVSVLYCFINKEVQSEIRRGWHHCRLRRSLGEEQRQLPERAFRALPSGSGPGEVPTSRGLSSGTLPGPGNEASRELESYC

human GcgR = human GcgR (Homo sapiens, UniProt P47871); assay: Functional cAMP activity in the presence of 1% HSA; assay type: cell-based; details: read-out: cAMP Rel EC50, hGcgR
Sequence of human GcgR (P47871 26-477): as the sequence (P47871 26-477) above

hGIPR [4] = target: T2, hGIPR; assay: Functional cAMP activation in the presence of 0.1% casein (no HSA); assay type: cell-based; details: read-out: Relative cAMP EC50, hGIPR;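 on Relative cAMP EC50, hGIPR: intracellular cAMP rise after 30 min at 37 °C read by HTRF against a standard curve, scaled between buffer alone (0%) and top control ligand concentration (100%), four-parameter fit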;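 on Relative cAMP EC50, hGcgR: intracellular cAMP rise after 30 min at 37 °C, read by HTRF against a cAMP standard curve, scaled from buffer only (0%) to maximal control ligand response (100%)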
hGLP-1R [5] = target: T1, hGLP-1R; assay: Functional cAMP activity in the presence of 1% HSA; assay type: cell-based; details: read-out: cAMP Rel EC50, hGLP-1R
Target sequence in this assay (P43220 24-463): as the sequence (P43220 24-463) above

human GLP1-R = human GLP1-R (Homo sapiens, UniProt P43220); assay: GLP1-R internalization assay in HEK293 cells; assay type: cell-based; details: for EC50: HEK293 cells expressing SNAP-GLP-1R, read-out: GLP1R Internalization EC50
Sequence of human GLP1-R (P43220 24-463): as above

hGLP-1R [6] = target: T1, hGLP-1R; assay: GLP-1R CHO cell β-arrestin recruitment assay; assay type: cell-based; set-up: host or cells: CHO-K1 (PathHunter, assay-ready frozen cells); details: for EC50: CHO-K1 PathHunter, β-arrestin-2, 0.1% casein, read-out: hGLP1R β-arrestin Rel EC50; for % Stimulation Max: normalized to GLP-1(7-36) as maximum control;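 on all read-outs here: luminescence read after 90 min peptide exposure at 37 °C and a further 60 min with detection reagent at room temperature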
Target sequence in this assay (P43220 24-463): as above
Target sequence in this assay (P32121 whole entry partner): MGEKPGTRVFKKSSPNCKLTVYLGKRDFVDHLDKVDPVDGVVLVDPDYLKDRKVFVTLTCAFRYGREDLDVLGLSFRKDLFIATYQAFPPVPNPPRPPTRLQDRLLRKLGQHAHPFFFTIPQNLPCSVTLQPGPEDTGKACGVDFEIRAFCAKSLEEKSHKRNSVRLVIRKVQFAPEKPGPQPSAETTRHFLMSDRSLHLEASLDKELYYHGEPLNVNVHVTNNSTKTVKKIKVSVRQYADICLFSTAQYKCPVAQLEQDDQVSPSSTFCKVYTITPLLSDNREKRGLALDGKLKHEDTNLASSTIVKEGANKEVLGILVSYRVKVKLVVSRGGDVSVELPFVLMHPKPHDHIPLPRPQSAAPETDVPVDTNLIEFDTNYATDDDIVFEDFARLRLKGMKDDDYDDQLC

[7] = in the presence of 0.1% casein (no HSA), geometric mean
[8] = normalized to maximum concentration of GLP-1 (100%)

Compound | EC50 (hGLP-1R [1]) | EC50 (hGcgR) | Body weight (%) ([2]; 10 nmol/kg SC QD, 15 days) | EC50 (hGIPR [3]) | EC50 (human GcgR) | EC50 (hGIPR [4]) | EC50 (hGLP-1R [1]; [7]) | EC50 (hGcgR; [7]) | EC50 (hGLP-1R [5]) | EC50 (human GLP1-R) | Internalization % TOP (human GLP1-R; [8]) | EC50 (hGLP-1R [6]) | % Stimulation Max (hGLP-1R [6]) | EC50 (hGIPR [4]; [7]) | Body weight (%) ([2]; 10 nmol/kg SC Q3D, 14 days) | Body weight (%) ([2]; 10 nmol/kg SC QD, 9 days) | Internalization % TOP (human GLP1-R)
CC[C@H](C)[C@H](NC(=O)[C@H](CC(C)C)NC(=O)[C@](C)(Cc1ccc(O)cc1)NC(=O)[C@@H](CCC(=O)O)NC(=O)[C@@H](NC(=O)[C@H](Cc1ccccc1)NC(=O)[C@H](CC(N)=O)NC(=O)C(C)(C)NC(=O)[C@H](CCC(N)=O)NC(=O)[C@H](C)NC(=O)[C@H](CCCCNC(=O)CC[C@H](NC(=O)CC[C@H](NC(=O)CCCCCCCCCCCCCCCCC(=O)O)C(=O)O)C(=O)O)NC(=O)[C@H](CCCN)NC(=O)[C@H](CC(=O)O)NC(=O)[C@H](CC(C)C)NC(=O)[C@](C)(CC(C)C)NC(=O)[C@@H](NC(=O)[C@](C)(CO)NC(=O)[C@H](Cc1ccncc1)NC(=O)[C@H](CC(=O)O)NC(=O)[C@H](CO)NC(=O)[C@@H](NC(=O)[C@](C)(Cc1ccccc1F)NC(=O)[C@@H](NC(=O)CNC(=O)[C@H](CCC(N)=O)NC(=O)C(C)(C)NC(=O)[C@@H](N)Cc1ccc(O)cc1)[C@@H](C)O)[C@@H](C)O)[C@@H](C)CC)[C@@H](C)CC)C(=O)N[C@@H](CCC(=O)O)C(=O)NCC(=O)NCC(=O)N1CCC[C@H]1C(=O)N[C@@H](CO)C(=O)N[C@@H](CO)C(=O)NCC(=O)N[C@@H](CCC(=O)O)C(=O)N1CCC[C@H]1C(=O)N[C@@H](CCC(=O)O)C(=O)N1CCC[C@H]1C(=O)N[C@@H](CCC(=O)O)C(N)=O [Example 452] | 0.235 nM | 2.44 nM | 74.13 ± 4.11 % | 0.846 nM | 240 nM | 0.0118 nM |  |  |  |  |  |  |  |  |  |  | 
H-Y[Aib]QGTFTSDFSK[αMeL]LDKK([AEEA-AEEA-γGlu-C20 diacid])AQ[Aib]AFIEYLLAGGPSSGEPPPSSE-NH2 [Example 5] |  |  |  | 32.5 nM | 2670 nM |  | 2.37 nM | 7.4 nM | 675 nM | 53.4 nM | 75% | > 10000 nM | 18.4% | 0.177 nM |  |  | 
H-Y[Aib]QGTFTSDFSK[αMeL]LDKK([AEEA-γGlu-C20 diacid])AQ[Aib]AFIEYLLAGAPSSGEPPPSEG-NH2 [Example 24] |  |  |  |  |  |  |  |  |  |  |  |  |  |  | 86.10 +/− 1.98**** % |  | 
H-Y[Aib]QGTFTSDFSK[αMeL]LDKK([AEEA-γGlu-C20 diacid])AQ[Aib]AFIEYLLAGGPSSGEPPPSSE-NH2 [Example 3] |  |  |  | 48.1 nM | 1590 nM |  | 1.67 nM | 3.8 nM | 546 nM | 49.2 nM | 69.7% | > 10000 nM | 16.5% | 0.217 nM |  |  | 
H-Y[Aib]QGTFTSDYSI[αMeL]LDKIAAK([AEEA-AEEA-γGlu-C20 diacid])QFVQWLIE[Aib]GPSSGEPPPSEG-NH2 [Example 323] |  |  |  | 37.7 nM | 1440 nM |  | 1.56 nM | 6.04 nM | 293 nM | 28.2 nM | 84.8% | 10.8 nM | 44% | 0.232 nM |  |  | 
H-Y[Aib]QGT[αMePhe(2-F)]TSDYSKLLDKIAQK([AEEA-γGlu-C20 diacid])AFIEYLIEGGPSSGAPPPSEG-NH2 [Example 339] |  |  |  | 28.8 nM | 1510 nM |  | 1.06 nM | 6.81 nM | 192 nM |  |  |  |  | 0.101 nM | 82.36 +/− 3.01**** % |  | 
H-Y[Aib]QGT[αMePhe(2-F)]TSDYSKLLDKIAQK([AEEA-γGlu-C20 diacid])AFIEYLIEGGPSSGEPPPSEG-NH2 [Example 304] |  |  |  | 48 nM | 1720 nM |  | 0.551 nM | 2.31 nM | 172 nM |  |  | 9.21 nM | 47.8% | 0.127 nM |  |  | 
H-Y[Aib]QGT[αMePhe(2-F)]TSDYSKLLDKQAQK([AEEA-γGlu-C20 diacid])QFIEYLIEGGPSSGEPPPSEG-NH2 [Example 309] |  |  |  | 424 nM | 3910 nM |  | 0.808 nM | 9.28 nM | 251 nM |  |  | 6.72 nM | 47.2% | 0.32 nM |  |  | 
H-Y[Aib]QGT[αMePhe(2-F)]TSD[4Pal][αMeS]I[αMeL]LD[Orn]K([AEEA-AEEA-γGlu-C18 diacid])AQ[Aib][Orn]FI[dE][αMeY]LIEGGPSSGEPPPSEG-NH2 [Example 490] | 0.183 nM | 3.05 nM |  | 0.861 nM | 262 nM | 0.0159 nM |  |  | 9.8 nM |  |  |  |  |  |  | 80.75 ± 3.23 % | 
H-[NMeY][Aib]QGT[αMeF]TSDYSILLDKIAAK([AEEA-AEEA-γGlu-C20 diacid])AFVQWLIAGGPSSGEPPPSEG-NH2 [Example 300] |  |  |  | 12.9 nM | 976 nM |  | 1.05 nM | 6.54 nM | 98 nM |  |  | 15.7 nM | 40.3% | 0.0975 nM |  |  | 
H-[NMeY][Aib]QGT[αMeF]TSDYSILLDKQAAK([AEEA-AEEA-γGlu-C20 diacid])AFVQWLIAGGPSSGEPPPSEG-NH2 [Example 301] |  |  |  | 81.8 nM | 1500 nM |  | 0.641 nM | 6.73 nM | 82.4 nM |  |  | 13.2 nM | 59.1% | 0.722 nM |  |  | 
H-[NMeY][Aib]QGT[αMeF]TSDYSILLDKQAAK([AEEA-AEEA-γGlu-C20 diacid])AFVQWLIEGGPSSGEPPPSEG-NH2 [Example 302] |  |  |  | 91.8 nM | 1370 nM |  | 0.621 nM | 4.47 nM | 73.6 nM |  |  | 11.2 nM | 56.6% | 0.7 nM |  |  | 
Tirzepatide [reference compound] |  |  |  |  |  |  |  |  |  |  |  |  | 10.5% |  |  |  | 60.3%
